The values below come from US20230295087A1, “AGONISTS OF ROR GAMMAt” (BRISTOL-MYERS SQUIBB COMPANY, priority 2019, published 2023).

Usually EC50 stands for the midpoint of the concentration-response curve.

For this experiment, the target named is T1, human RORgT (Homo sapiens, UniProt P51449).
T1 construct: expressed in transfected cells
T1 sequence (P51449 267-516): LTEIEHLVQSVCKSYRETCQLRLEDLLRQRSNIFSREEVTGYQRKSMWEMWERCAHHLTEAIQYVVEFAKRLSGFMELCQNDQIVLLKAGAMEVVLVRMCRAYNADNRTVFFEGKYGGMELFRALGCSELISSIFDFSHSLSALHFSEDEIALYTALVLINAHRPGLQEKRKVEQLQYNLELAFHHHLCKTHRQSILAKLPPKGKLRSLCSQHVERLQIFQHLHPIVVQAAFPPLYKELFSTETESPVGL
Put plainly: RORgT Gal4 Luciferase Reporter Gene Assay. Type of experiment: cell-based. The following applies: engineered Jurkat cells overexpressing RORgT (LBD or full length) fused with Gal4 Luc reporter; 18 hours at 37° C.; luminescence. An outline of the steps:
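Jurkat cells expressing Gal4 Luc with either RORgT LBD (aa267-516) or full-length human RORgT, 10,000 cells/well, treated with compound (40 µM to 0.67 nM final, 3-fold dilutions) for 18 h at 37° C. Steady-Glo luminescence read; inhibition of constitutive activity as % signal-window reduction relative to a control compound.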
As to `CN1CC(C(=O)N2CC[C@@]3(S(=O)(=O)c4ccccc4)c4ccc(OCc5c(Cl)cccc5Cl)cc4CC[C@@H]23)CC1=O` (stereo partly drawn) [Example 77, 4-[(3aR,9bR)-9b-(benzenesulfonyl)-7-[(2,6-dichlorophenyl)methoxy]-1H,2H,3H,3aH,4H,5H,9bH-benzo[e]indole-3-carbonyl]-1-methylpyrrolidin-2-one], the EC50 was determined as 19 nM. Under `CC(=O)N1CCC(C(=O)N2CC[C@@]3(S(=O)(=O)c4ccc(F)cc4)c4ccc(OCc5cc(Cl)ccc5Cl)cc4CC[C@@H]23)CC1` [Example 196, 1-{4-[(3aR,9bR)-7-[(2,5-dichlorophenyl)methoxy] -9b-(4-fluorobenzenesulfonyl)-1H,2H,3H,3aH,4H,5H,9bH-benzo[e]indole-3-carbonyl]piperidin-1-yl}ethan-1-one] stands 37 nM; under `O=C(CN1CCS(=O)(=O)CC1)N1CC[C@@]2(S(=O)(=O)c3ccc(F)cc3)c3ccc(OCc4c(F)cccc4Cl)cc3CC[C@@H]12` [Example 165, 4-{2-[(3aR,9bR)-7-[(2-chloro-6-fluorophenyl)methoxy]-9b-(4-fluorobenzenesulfonyl)-1H,2H,3H,3aH,4H,5H,9bH-benzo[e]indol-3-yl]-2-oxoethyl}-1λ^6-thiomorpholine-1,1-dione], 11 nM. For `O=C(C1CCS(=O)(=O)CC1)N1CC[C@@]2(S(=O)(=O)c3ccccc3)c3ccc(OCC4CCCCC4)cc3CC[C@@H]12` [Example 125, 4-[(3aR,9bR)-9b-(benzenesulfonyl)-7-(cyclohexylmethoxy)-1H,2H,3H,3aH,4H,5H,9bH-benzo[e]indole-3-carbonyl]-1λ^6-thiane-1,1-dione] the value was 24 nM; for `CS(=O)(=O)N[C@@H]1CCCN(C(=O)N2CC[C@@]3(S(=O)(=O)c4ccccc4)c4ccc(OCc5c(Cl)cccc5Cl)cc4CC[C@@H]23)C1` [Example 90, N-[(3R)-1-[(3aR,9bR)-9b-(benzenesulfonyl)-7-[(2,6-dichlorophenyl)methoxy]-1H,2H,3H,3aH,4H,5H,9bH-benzo[e]indole-3-carbonyl]piperidin-3-yl]methanesulfonamide], 712 nM; for `CC(=O)N1CC2(CC(C(=O)N3CC[C@@]4(S(=O)(=O)c5ccccc5)c5ccc(OCc6c(Cl)cccc6Cl)cc5CC[C@@H]34)C2)C1` [Example 68, 1-{6-[(3aR,9bR)-9b-(benzenesulfonyl)-7-[(2,6-dichlorophenyl)methoxy]-1H,2H,3H,3aH,4H,5H,9bH-benzo[e]indole-3-carbonyl]-2-azaspiro[3.3]heptan-2-yl}ethan-1-one], 409 nM. For `COC(=O)[C@H]1CC[C@H](C(=O)N2CC[C@@]3(S(=O)(=O)c4ccc(F)cc4)c4ccc(OCc5c(Cl)cccc5Cl)cc4CC[C@@H]23)CC1` [Example 169, methyl(1r,4r)-4-[(3aR,9bR)-7-[(2,6-dichlorophenyl)methoxy]-9b-(4-fluorobenzenesulfonyl)-1H,2H,3H,3aH,4H,5H,9bH-benzo[e]indole-3-carbonyl]cyclohexane-1-carboxylate] the value was 37 nM.

On to `Cc1ccccc1Cc1ccc2c(c1)CC[C@H]1N(C(=O)[C@H]3CC[C@H](C(=O)O)CC3)CC[C@@]21S(=O)(=O)c1ccc(F)cc1` [Example 43, (1r,4r)-4-[(3aR,9bR)-9b-(4-fluorobenzenesulfonyl)-7-[(2-methylphenyl)methyl]-1H,2H,3H,3aH,4H,5H,9bH-benzo[e]indole-3-carbonyl]cyclohexane-1-carboxylic acid], for which a half-maximal response (EC50) required 2.7 nM. Under `O=C(O)[C@H]1CC[C@H](C(=O)N2CC[C@@]3(S(=O)(=O)c4ccc(F)cc4)c4ccc(COc5c(Cl)cccc5Cl)cc4CC[C@@H]23)CC1` [Example 6, (1R,4r)-4-((3aR,9bR)-7-((2,6-dichlorophenoxy)methyl)-9b-((4-fluorophenyl)sulfonyl)-2,3,3a,4,5,9b-hexahydro-1H-benzo[e]indole-3-carbonyl)cyclohexanecarboxylic acid] stands 2.4 nM. Under `O=C(C1CCS(=O)(=O)C1)N1CC[C@@]2(S(=O)(=O)c3ccc(F)cc3)c3ccc(OCc4ccc(F)cc4Cl)cc3CC[C@@H]12` (stereo partly drawn) [Example 201, 3-[(3aR,9bR)-7-[(2-chloro-4-fluorophenyl)methoxy]-9b-(4-fluorobenzenesulfonyl)-1H,2H,3H,3aH,4H,5H,9bH-benzo[e]indole-3-carbonyl]-1λ^6-thiolane-1,1-dione] stands 40 nM. Molecule `O=C(C1CCS(=O)(=O)CC1)N1CC[C@@]2(S(=O)(=O)c3ccccc3)c3ccc(OCc4c(F)cccc4C(F)(F)F)cc3CC[C@@H]12` [Example 132, 4-[(3aR,9bR)-9b-(benzenesulfonyl)-7-{[2-fluoro-6-(trifluoromethyl)phenyl]methoxy}-1H,2H,3H,3aH,4H,5H,9bH-benzo[e]indole-3-carbonyl]-1λ^6-thiane-1,1-dione] displayed an EC50 of 9.5 nM.

Turning to `CC(=O)N1CCN(C(=O)N2CC[C@@]3(S(=O)(=O)c4ccccc4)c4ccc(OCc5c(Cl)cccc5Cl)cc4CC[C@@H]23)CC1` [Example 94, 1-{4-[(3aR,9bR)-9b-(benzenesulfonyl)-7-[(2,6-dichlorophenyl)methoxy]-1H,2H,3H,3aH,4H,5H,9bH-benzo[e]indole-3-carbonyl]piperazin-1-yl}ethan-1-one], the EC50 stood at 15 nM. Regarding `O=C(C1CCS(=O)(=O)CC1)N1CC[C@@]2(S(=O)(=O)c3ccccc3)c3ccc(OCc4c(F)cccc4F)cc3CC[C@@H]12` [Example 133, 4-[(3aR,9bR)-9b-(benzenesulfonyl)-7-[(2,6-difluorophenyl)methoxy] -1H,2H,3H,3aH,4H,5H,9bH-benzo[e]indole-3-carbonyl]-1λ^6-thiane-1,1-dione], the EC50 stood at 17 nM. Under `O=C(O)[C@H]1CC[C@H](CN2CC[C@@]3(S(=O)(=O)c4ccc(F)cc4)c4ccc(OCc5c(F)cccc5C(F)(F)F)cc4CC[C@@H]23)CC1` [Example 10] stands 39 nM; under `N#CCCN1C(=O)CC[C@H]1C(=O)N1CC[C@@]2(S(=O)(=O)c3ccc(F)cc3)c3ccc(OCc4c(Cl)cccc4Cl)cc3CC[C@@H]12` [Example 156, 3-[(2S)-2-[(3aR,9bR)-7-[(2,6-dichlorophenyl)methoxy]-9b-(4-fluorobenzenesulfonyl)-1H,2H,3H,3aH,4H,5H,9bH-benzo[e]indole-3-carbonyl]-5-oxopyrrolidin-1-yl]propanenitrile], 11 nM; under `O=C(N1CC(O)C1)N1CC[C@@]2(S(=O)(=O)c3ccccc3)c3ccc(OCc4c(Cl)cccc4Cl)cc3CC[C@@H]12` [Example 88, 1-[(3aR,9bR)-9b-(benzenesulfonyl)-7-[(2,6-dichlorophenyl)methoxy]-1H,2H,3H,3aH,4H,5H,9bH-benzo[e]indole-3-carbonyl] azetidin-3-ol], 301 nM. Take `C[C@@H]1C[C@@H](C(=O)O)CC[C@@H]1C(=O)N1CC[C@@]2(S(=O)(=O)c3ccc(F)cc3)c3ccc(OCc4c(F)cccc4C(F)(F)F)cc3CC[C@@H]12` [Example 26, (1S,3R,4S)-4-[(3aR,9bR)-7-{[2-fluoro-6-(trifluoromethyl)phenyl]methoxy}-9b-(4-fluorobenzenesulfonyl)-1H,2H,3H,3aH,4H,5H,9bH-benzo[e]indole-3-carbonyl]-3-methylcyclohexane-1-carboxylic acid]: the EC50 amounted to 27 nM.

As for `[2H]C([2H])([2H])N1C(=O)CC[C@H]1C(=O)N1CC[C@@]2(S(=O)(=O)c3ccccc3)c3ccc(OCc4c(F)cccc4Cl)cc3CC[C@@H]12` [Example 146, (5S)-5-[(3aR,9bR)-9b-(benzenesulfonyl)-7-[(2-chloro-6-fluorophenyl)methoxy]-1H,2H,3H,3aH,4H,5H,9bH-benzo[e]indole-3-carbonyl]-1-(^2H)methylpyrrolidin-2-one], the EC50 is 6.5 nM. For `O=C(C1CCS(=O)(=O)CC1)N1CC[C@@]2(S(=O)(=O)c3ccc(F)cc3)c3ccc(COc4c(F)cccc4Cl)cc3CC[C@@H]12` [Example 33, 4-[(3aR,9bR)-7-[(2-chloro-6-fluorophenoxy)methyl]-9b-(4-fluorobenzenesulfonyl)-1H,2H,3H,3aH,4H,5H,9bH-benzo[e]indole-3-carbonyl]-1λ^6-thiane-1,1-dione] the value was 10 nM; for `CS(=O)(=O)N1CCC(C(=O)N2CC[C@@]3(S(=O)(=O)c4ccccc4)c4ccc(OCc5c(Cl)cccc5Cl)cc4CC[C@@H]23)CC1` [Example 60, 4-[(3aR,9bR)-9b-(benzenesulfonyl)-7-[(2,6-dichlorophenyl)methoxy]-1H,2H,3H,3aH,4H,5H,9bH-benzo[e]indole-3-carbonyl]-1-methanesulfonylpiperidine], 10 nM. The molecule `O=C(CN1CCS(=O)(=O)CC1)N1CC[C@@]2(S(=O)(=O)c3ccccc3)c3ccc(OCc4c(F)cccc4Cl)cc3CC[C@@H]12` [Example 139, 4-{2-[(3aR,9bR)-9b-(benzenesulfonyl)-7-[(2-chloro-6-fluorophenyl)methoxy]-1H,2H,3H,3aH,4H,5H,9bH-benzo[e]indol-3-yl]-2-oxoethyl}-1λ^6-thiomorpholine-1,1-dione] came in with an EC50 of 14 nM. Under `O=C(O)[C@H]1CC[C@H](C(=O)N2CC[C@@]3(S(=O)(=O)c4ccc(F)cc4)c4ccc(Oc5c(F)ccnc5F)cc4CC[C@@H]23)CC1` [Example 115, (1r,4r)-4-[(3aR,9bR)-7-[(2,4-difluoropyridin-3-yl)oxy]-9b-(4-fluorobenzenesulfonyl)-1H,2H,3H,3aH,4H,5H,9bH-benzo[e]indole-3-carbonyl]cyclohexane-1-carboxylic acid] stands 25 nM.
